The first experiment has as its target GLP-1R (Homo sapiens, UniProt P43220). The experiment in a line: GLP-1R Activation - cAMP Assay. In kind it is cell-based. Conditions: […]; each compound run on one of the two cAMP assays (Assay 1 or Assay 2, not specified). The procedure, abridged:
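cAMP rise read by HTRF after 30 min agonist exposure (10-point titration, 37 °C) in HBSS/20 mM Hepes/0.1% BSA, following 1 h pre-incubation. Cells: stable GLP-1R CHO line, 1,000/well, seeded overnight. Sigmoidal fit of response vs log concentration gives EC50.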
Chain of GLP-1R (P43220 24-463): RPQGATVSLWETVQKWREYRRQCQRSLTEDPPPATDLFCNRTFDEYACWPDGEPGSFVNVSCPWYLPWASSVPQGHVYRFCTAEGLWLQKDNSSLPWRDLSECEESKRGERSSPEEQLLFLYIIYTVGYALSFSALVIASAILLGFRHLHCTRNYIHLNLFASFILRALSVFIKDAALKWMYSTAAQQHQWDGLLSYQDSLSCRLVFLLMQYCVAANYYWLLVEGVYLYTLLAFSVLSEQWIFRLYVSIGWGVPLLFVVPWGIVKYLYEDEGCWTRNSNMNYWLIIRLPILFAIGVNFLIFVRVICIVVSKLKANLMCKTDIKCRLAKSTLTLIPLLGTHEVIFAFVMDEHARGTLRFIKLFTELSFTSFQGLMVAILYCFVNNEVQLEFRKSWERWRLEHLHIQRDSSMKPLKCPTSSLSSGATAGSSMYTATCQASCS
Regarding `CC(=O)N1[C@@H](Cn2c(Cc3cc(F)c(-c4cccc(OCc5ccc(C#N)cc5F)n4)cc3F)nc3ccc(C(=O)O)cc32)C[C@H]2C[C@H]21` [Example 150, 1-(((1R,3R,5R)-2-acetyl-2-azabicyclo[3.1.0]hexan-3-yl)methyl)-2-(4-(6-((4-cyano-2-fluorobenzyl)oxy)pyridin-2-yl)-2,5-difluorobenzyl)-1H-benzo[d]imidazole-6-carboxylic Acid], the EC50 – broadly, the concentration needed to bring the measured effect to its halfway point – was 0.063 nM. In other words, the picomolar range.

The experiment is the same for the next values; noted with them: cAMP increase in CHO cells stably expressing GLP-1R; each compound run on one of the two cAMP assays (Assay 1 or Assay 2, not specified).
In turn, `O=C(O)c1cc(F)c2nc(Cc3cc(F)c(-c4ncc(F)c(OCc5ccc(C(F)(F)F)cc5F)n4)cc3F)n(C[C@@H]3CCO3)c2c1` [Example 148, (S)-2-(2,5-difluoro-4-(5-fluoro-4-((2-fluoro-4-(trifluoromethyl)benzyl)oxy)pyrimidin-2-yl)benzyl)-4-fluoro-1-(oxetan-2-ylmethyl)-1H-benzo[d]imidazole-6-carboxylic Acid] yielded an EC50 of 0.174 nM. Same read-out and setting: to `O=C(O)c1cc(F)c2nc(Cc3cc(F)c(-c4nccc(OCc5ccc(C(F)(F)F)cc5F)n4)cc3F)n(C[C@@H]3CCO3)c2c1` [Example 149] belongs 0.082 nM; to `CC1(C)COC[C@H]1n1c(Cc2c(F)cc(-c3nc(OCc4ccc(C#N)cc4)c(F)cc3F)cc2F)nc2ccc(C(=O)O)cc21` [Example 151, (S)-2-(4-(6-((4-cyanobenzyl)oxy)-3,5-difluoropyridin-2-yl)-2,6-difluorobenzyl)-1-(4,4-dimethyltetrahydrofuran-3-yl)-1H-benzo[d]imidazole-6-carboxylic Acid], 0.234 nM. Same read-out and setting: to `CC1(C)COC[C@H]1n1c(Cc2ccc(-c3nc(OCc4ccc(C#N)cc4)c(F)cc3F)cc2F)nc2ccc(C(=O)O)cc21` [Example 152, (S)-2-(4-(6-((4-cyanobenzyl)oxy)-3,5-difluoropyridin-2-yl)-2-fluorobenzyl)-1-(4,4-dimethyltetrahydrofuran-3-yl)-1H-benzo[d]imidazole-6-carboxylic Acid] belongs 0.115 nM; to `CC1(C)COC[C@H]1n1c(Cc2cc(F)c(-c3ccc(F)c(OCc4cnc(-n5ccnn5)cc4Cl)n3)cc2F)nc2c(F)cc(C(=O)O)cc21` [Example 153, (S)-2-(4-(6-((4-chloro-6-(1H-1,2,3-triazol-1-yl)pyridin-3-yl)methoxy)-5-fluoropyridin-2-yl)-2,5-difluorobenzyl)-1-(4,4-dimethyltetrahydrofuran-3-yl)-4-fluoro-1H-benzo[d]imidazole-6-carboxylic Acid], 0.011 nM. On the same count and under the same terms, the value for `CC1(C)COC[C@H]1n1c(Cc2ccc(-c3ccc(F)c(OCc4cnc(-n5ccnn5)cc4Cl)n3)cc2F)nc2c(F)cc(C(=O)O)cc21` [Example 154, (S)-2-(4-(6-((4-chloro-6-(1H-1,2,3-triazol-1-yl)pyridin-3-yl)methoxy)-5-fluoropyridin-2-yl)-2-fluorobenzyl)-1-(4,4-dimethyltetrahydrofuran-3-yl)-4-fluoro-1H-benzo[d]imidazole-6-carboxylic Acid] was 0.034 nM; that for `COCCn1c(Cc2ccc(-c3ccc(F)c(OCc4cnc(-n5ccnn5)cc4Cl)n3)cc2F)nc2ccc(C(=O)O)cc21` [Example 155, 2-(4-(6-((4-chloro-6-(1H-1,2,3-triazol-1-yl)pyridin-3-yl)methoxy)-5-fluoropyridin-2-yl)-2-fluorobenzyl)-1-(2-methoxyethyl)-1H-benzo[d]imidazole-6-carboxylic Acid] was 0.416 nM; that for `Cc1cc(Cc2nc3ccc(C(=O)O)cc3n2[C@@H]2COCC2(C)C)c(Cl)cc1-c1cccc(OCc2cnc(-n3ccnn3)cc2Cl)n1` [Example 156, (S)-2-(2-chloro-4-(6-((4-chloro-6-(1H-1,2,3-triazol-1-yl)pyridin-3-yl)methoxy)pyridin-2-yl)-5-methylbenzyl)-1-(4,4-dimethyltetrahydrofuran-3-yl)-1H-benzo[d]imidazole-6-carboxylic Acid] was 0.064 nM. On to `CC1(C)COC[C@H]1n1c(Cc2c(F)cc(-c3cccc(OCc4cnc(-n5ccnn5)cc4Cl)n3)c(F)c2F)nc2ccc(C(=O)O)cc21` [Example 157, (S)-2-(4-(6-((4-chloro-6-(1H-1,2,3-triazol-1-yl)pyridin-3-yl)methoxy)pyridin-2-yl)-2,3,6-trifluorobenzyl)-1-(4,4-dimethyltetrahydrofuran-3-yl)-1H-benzo[d]imidazole-6-carboxylic Acid], for which the EC50 was found to be 0.081 nM. The EC50 values of the last two compounds are within 1.5-fold of each other.

Consider `CC1(C)COC[C@H]1n1c(Cc2ccc(-c3cccc(OCc4cnc(-n5ccnn5)cc4Cl)n3)cc2F)nc2ccc(C(=O)O)cc21` [Example 158, (S)-2-(4-(6-((4-chloro-6-(1H-1,2,3-triazol-1-yl)pyridin-3-yl)methoxy)pyridin-2-yl)-2-fluorobenzyl)-1-(4,4-dimethyltetrahydrofuran-3-yl)-1H-benzo[d]imidazole-6-carboxylic Acid], for which the EC50 stood at 0.032 nM. With `CC1(C)COC[C@H]1n1c(Cc2c(F)cc(-c3ccc(F)c(OCc4cnc(-n5ccnn5)cc4Cl)n3)c(F)c2F)nc2ccc(C(=O)O)cc21` [Example 159, (S)-2-(4-(6-((4-chloro-6-(1H-1,2,3-triazol-1-yl)pyridin-3-yl)methoxy)-5-fluoropyridin-2-yl)-2,3,6-trifluorobenzyl)-1-(4,4-dimethyltetrahydrofuran-3-yl)-1H-benzo[d]imidazole-6-carboxylic Acid], it took 0.043 nM to reach a half-maximal effect (EC50). The EC50 values of the last two compounds are within 1.5-fold of each other. Take `CC1(C)COC[C@H]1n1c(Cc2cc(F)c(-c3ccc(F)c(OCc4cnc(-n5ccnn5)cc4Cl)n3)cc2F)nc2ccc(C(=O)O)cc21` [Example 160, (S)-2-(4-(6-((4-chloro-6-(1H-1,2,3-triazol-1-yl)pyridin-3-yl)methoxy)-5-fluoropyridin-2-yl)-2,5-difluorobenzyl)-1-(4,4-dimethyltetrahydrofuran-3-yl)-1H-benzo[d]imidazole-6-carboxylic Acid]: a half-maximal effect (EC50) was put at 0.035 nM. The EC50 values of the last two compounds are within 1.5-fold of each other. Compound `CC1(C)COC[C@H]1n1c(Cc2ccc(-c3ccc(F)c(OCc4cnc(-n5ccnn5)cc4Cl)n3)cc2F)nc2ccc(C(=O)O)cc21` [Example 161, (S)-2-(4-(6-((4-chloro-6-(1H-1,2,3-triazol-1-yl)pyridin-3-yl)methoxy)-5-fluoropyridin-2-yl)-2-fluorobenzyl)-1-(4,4-dimethyltetrahydrofuran-3-yl)-1H-benzo[d]imidazole-6-carboxylic Acid] showed a 50% effective concentration (EC50) of 0.015 nM.

On to `CC1(C)COC[C@H]1n1c(Cc2cc(F)c(-c3cccc(OCc4ncc(-n5ccnn5)cc4Cl)n3)cc2F)nc2ccc(C(=O)O)cc21` [Example 162, (S)-2-(4-(6-((3-chloro-5-(1H-1,2,3-triazol-1-yl)pyridin-2-yl)methoxy)pyridin-2-yl)-2,5-difluorobenzyl)-1-(4,4-dimethyltetrahydrofuran-3-yl)-1H-benzo[d]imidazole-6-carboxylic Acid], for which the concentration giving a half-maximal response (EC50) is 0.187 nM. This EC50 lies about 12-fold higher than the previous one.

With `CC1(C)COC[C@H]1n1c(Cc2cc(F)c(-c3ccc(F)c(OCc4ccc(-n5ccnn5)cc4F)n3)cc2F)nc2ccc(C(=O)O)cc21` [Example 163, (S)-2-(2,5-difluoro-4-(5-fluoro-6-((2-fluoro-4-(1H-1,2,3-triazol-1-yl)benzyl)oxy)pyridin-2-yl)benzyl)-1-(4,4-dimethyltetrahydrofuran-3-yl)-1H-benzo[d]imidazole-6-carboxylic Acid], the response was half-maximal at 0.039 nM (EC50). Same read-out and setting: the value for `Cc1cn(-c2ccc(COc3cccc(-c4cc(F)c(Cc5nc6ccc(C(=O)O)cc6n5[C@@H]5COCC5(C)C)cc4F)n3)c(F)c2)nn1` [Example 164, (S)-2-(2,5-difluoro-4-(6-((2-fluoro-4-(4-methyl-1H-1,2,3-triazol-1-yl)benzyl)oxy)pyridin-2-yl)benzyl)-1-(4,4-dimethyltetrahydrofuran-3-yl)-1H-benzo[d]imidazole-6-carboxylic Acid] was 0.085 nM; that for `CC1(C)COCC1n1c(Cc2cc(F)c(-c3cccc(OCc4ccc(C#N)cc4F)n3)cc2F)nc2ccc(C(=O)O)c(F)c21` (stereo not shown) [Example 165, 2-(4-(6-((4-cyano-2-fluorobenzyl)oxy)pyridin-2-yl)-2,5-difluorobenzyl)-1-(4,4-dimethyltetrahydrofuran-3-yl)-7-fluoro-1H-benzo[d]imidazole-6-carboxylic Acid] was 0.553 nM. Still for that read-out and setting: to `CC1(C)COCC1n1c(Cc2cc(F)c(-c3cccc(OCc4ccc(C#N)cc4F)n3)cc2F)nc2ccc(C(=O)O)c(F)c21` (stereo not shown) [Example 166, 2-(4-(6-((4-cyano-2-fluorobenzyl)oxy)pyridin-2-yl)-2,5-difluorobenzyl)-1-(4,4-dimethyltetrahydrofuran-3-yl)-7-fluoro-1H-benzo[d]imidazole-6-carboxylic Acid] belongs 0.222 nM. Take `CC1(C)COC[C@H]1n1c(Cc2cc(F)c(-c3cccc(OCc4ccc(-n5ccnn5)cc4F)n3)cc2F)nc2ccc(C(=O)O)cc21` [Example 167, (S)-2-(2,5-difluoro-4-(6-((2-fluoro-4-(1H-1,2,3-triazol-1-yl)benzyl)oxy)pyridin-2-yl)benzyl)-1-(4,4-dimethyltetrahydrofuran-3-yl)-1H-benzo[d]imidazole-6-carboxylic Acid]: the midpoint of the response, the EC50, lay at 0.027 nM. This EC50 is about 8.2-fold lower than that of the compound before. With `CC1(C)COC[C@H]1n1c(Cc2cc(F)c(-c3cccc(OCc4ccc(C(F)(F)F)cc4F)n3)cc2F)nc2ccc(C(=O)O)cc21` [Example 168, (S)-2-(2,5-difluoro-4-(6-((2-fluoro-4-(trifluoromethyl)benzyl)oxy)pyridin-2-yl)benzyl)-1-(4,4-dimethyltetrahydrofuran-3-yl)-1H-benzo[d]imidazole-6-carboxylic Acid], the EC50 worked out at 0.388 nM. On the same count and under the same terms, the value for `CC1(C)COC[C@H]1n1c(Cc2cc(F)c(-c3cccc(OCc4ccc(C(F)(F)F)cc4F)n3)cc2F)nc2c(F)cc(C(=O)O)cc21` [Example 169, (S)-2-(2,5-difluoro-4-(6-((2-fluoro-4-(trifluoromethyl)benzyl)oxy)pyridin-2-yl)benzyl)-1-(4,4-dimethyltetrahydrofuran-3-yl)-4-fluoro-1H-benzo[d]imidazole-6-carboxylic Acid] was 0.171 nM.
